Tests used:
Assay type in all cases: in vivo
[1] = system: blackgrass (Alopecurus myosuroides); experiment: Test A postemergence; conditions: postemergence; for Blackgrass plant response rating: 125 g ai/ha, visual injury rating on 0 to 100 scale (0 no effect, 100 complete control), approx. 10 d; for Plant response rating, Blackgrass: 500 g ai/ha, 0 to 100 scale, 0 no effect, 100 complete control
Method in brief: (§1)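 In a loam soil and sand blend, planted seeds got a preemergence directed soil spray, and young plants at the one- to two-leaf stage, 2–10 cm high, got a postemergence application; ~10 d greenhouse hold; injury rated visually, 0 = none, 100 = complete control.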

[2] = system: ryegrass, Italian (Italian ryegrass, Lolium multiflorum); experiment: Test A postemergence; conditions: postemergence; for Ryegrass, Italian plant response rating: 125 g ai/ha, visual injury rating on 0 to 100 scale (0 no effect, 100 complete control), approx. 10 d; for Plant response rating, Ryegrass, Italian: 500 g ai/ha, 0 to 100 scale, 0 no effect, 100 complete control
Method in brief: as §1

[3] = system: ragweed (common ragweed, Ambrosia elatior); experiment: Test A postemergence; conditions: postemergence; for Ragweed plant response rating: 125 g ai/ha, visual injury rating on 0 to 100 scale (0 no effect, 100 complete control), approx. 10 d; for Plant response rating, Ragweed: 500 g ai/ha, 0 to 100 scale, 0 no effect, 100 complete control
Method in brief: as §1

[4] = system: pigweed (Amaranthus retroflexus); experiment: Test A postemergence; conditions: postemergence; for Pigweed plant response rating: 125 g ai/ha, visual injury rating on 0 to 100 scale (0 no effect, 100 complete control), approx. 10 d; for Plant response rating, Pigweed: 500 g ai/ha, 0 to 100 scale, 0 no effect, 100 complete control
Method in brief: as §1

[5] = system: giant foxtail (Setaria faberii); experiment: Test A postemergence; conditions: postemergence; for Foxtail, Giant plant response rating: 125 g ai/ha, visual injury rating on 0 to 100 scale (0 no effect, 100 complete control), approx. 10 d; for Plant response rating, Foxtail, Giant: 500 g ai/ha, 0 to 100 scale, 0 no effect, 100 complete control
Method in brief: as §1

[6] = system: Galium (catchweed bedstraw, Galium aparine); experiment: Test A postemergence; conditions: postemergence; for Galium plant response rating: 125 g ai/ha, visual injury rating on 0 to 100 scale (0 no effect, 100 complete control), approx. 10 d; for Plant response rating, Galium: 500 g ai/ha, 0 to 100 scale, 0 no effect, 100 complete control
Method in brief: as §1

[7] = system: wheat (Triticum aestivum); experiment: Test A postemergence; conditions: postemergence; for Wheat plant response rating: 125 g ai/ha, visual injury rating on 0 to 100 scale (0 no effect, 100 complete control), approx. 10 d; for Plant response rating, Wheat: 500 g ai/ha, 0 to 100 scale, 0 no effect, 100 complete control
Method in brief: as §1

[8] = system: Kochia (Kochia scoparia); experiment: Test A postemergence; conditions: postemergence; for Kochia plant response rating: 125 g ai/ha, visual injury rating on 0 to 100 scale (0 no effect, 100 complete control), approx. 10 d; for Plant response rating, Kochia: 500 g ai/ha, 0 to 100 scale, 0 no effect, 100 complete control
Method in brief: as §1

[9] = system: barnyardgrass (Echinochloa crus-galli); experiment: Test A postemergence; conditions: postemergence; for Barnyardgrass plant response rating: 125 g ai/ha, visual injury rating on 0 to 100 scale (0 no effect, 100 complete control), approx. 10 d; for Plant response rating, Barnyardgrass: 500 g ai/ha, 0 to 100 scale, 0 no effect, 100 complete control
Method in brief: as §1

[10] = system: corn (Zea mays); experiment: Test A postemergence; conditions: postemergence; for Corn plant response rating: 125 g ai/ha, visual injury rating on 0 to 100 scale (0 no effect, 100 complete control), approx. 10 d; for Plant response rating, Corn: 500 g ai/ha, 0 to 100 scale, 0 no effect, 100 complete control
Method in brief: as §1

[11] = system: ducksalad (Heteranthera limosa); experiment: Test B flooded paddy test; conditions: Flood, 250 g ai/ha; 0 to 100 scale where 0 is no effect and 100 is complete control; 13 to 15 d
Method in brief: (§2)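 Plants at 2-leaf stage flooded to 3 cm above soil, with compounds applied directly to paddy water and that depth maintained. Plants kept in greenhouse 13–15 d. Visual rating versus controls on a 0 (no effect) to 100 (complete control) scale.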

[12] = system: rice (Oryra sativa); experiment: Test B flooded paddy test; conditions: Flood, 250 g ai/ha; 0 to 100 scale where 0 is no effect and 100 is complete control; 13 to 15 d
Method in brief: as §2

[13] = system: sedge, umbrella (small-flower umbrella sedge, Cyperus difformis); experiment: Test B flooded paddy test; conditions: Flood, 250 g ai/ha; 0 to 100 scale where 0 is no effect and 100 is complete control; 13 to 15 d
Method in brief: as §2

[14] = system: barnyardgrass (Echinochloa crus-galli); experiment: Test B flooded paddy test; conditions: Flood, 250 g ai/ha; 0 to 100 scale where 0 is no effect and 100 is complete control; 13 to 15 d
Method in brief: as §2

[15] = system: ryegrass, Italian (Italian ryegrass, Lolium multiflorum); experiment: Test A preemergence; conditions: for Plant response rating, Ryegrass, Italian: 125 g ai/ha, preemergence, 0 to 100 scale (0 no effect, 100 complete control); for Ryegrass, Italian plant response rating (0 to 100 scale, 0 is no effect, 100 is complete control): Preemergence, 500 g ai/ha, visual injury approx. 10 d
Method in brief: as §1

[16] = system: ragweed (common ragweed, Ambrosia elatior); experiment: Test A preemergence; conditions: for Plant response rating, Ragweed: 125 g ai/ha, preemergence, 0 to 100 scale (0 no effect, 100 complete control); for Ragweed plant response rating (0 to 100 scale, 0 is no effect, 100 is complete control): Preemergence, 500 g ai/ha, visual injury approx. 10 d
Method in brief: as §1

[17] = system: pigweed (Amaranthus retroflexus); experiment: Test A preemergence; conditions: for Plant response rating, Pigweed: 125 g ai/ha, preemergence, 0 to 100 scale (0 no effect, 100 complete control); for Pigweed plant response rating (0 to 100 scale, 0 is no effect, 100 is complete control): Preemergence, 500 g ai/ha, visual injury approx. 10 d
[18] = system: giant foxtail (Setaria faberii); experiment: Test A preemergence; conditions: for Plant response rating, Foxtail, Giant: 125 g ai/ha, preemergence, 0 to 100 scale (0 no effect, 100 complete control); for Foxtail, Giant plant response rating (0 to 100 scale, 0 is no effect, 100 is complete control): Preemergence, 500 g ai/ha, visual injury approx. 10 d
Method in brief: as §1

[19] = system: Kochia (Kochia scoparia); experiment: Test A preemergence; conditions: for Plant response rating, Kochia: 125 g ai/ha, preemergence, 0 to 100 scale (0 no effect, 100 complete control); for Kochia plant response rating (0 to 100 scale, 0 is no effect, 100 is complete control): Preemergence, 500 g ai/ha, visual injury approx. 10 d
Method in brief: as §1

[20] = system: barnyardgrass (Echinochloa crus-galli); experiment: Test A preemergence; conditions: for Plant response rating, Barnyardgrass: 125 g ai/ha, preemergence, 0 to 100 scale (0 no effect, 100 complete control); for Barnyardgrass plant response rating (0 to 100 scale, 0 is no effect, 100 is complete control): Preemergence, 500 g ai/ha, visual injury approx. 10 d
Method in brief: as §1

**Q.** How did the “Blackgrass plant response rating” value [1] turn out when `Cc1cc(C2CNC(=O)C2C(=O)Nc2cccc(F)c2F)ccc1F` (stereo not drawn) [Compound 400] was run?
**A.** 60

**Q.** What about the “Plant response rating, Blackgrass” value [1] of the same compound?
**A.** 60

**Q.** What about the “Ryegrass, Italian plant response rating” value [2] of the same compound?
**A.** 20

**Q.** What about the “Plant response rating, Ryegrass, Italian” value [2] of the same compound?
**A.** 90

**Q.** And the “Ragweed plant response rating” value [3]?
**A.** 40

**Q.** What about the “Plant response rating, Ragweed” value [3] of the same compound?
**A.** 50

**Q.** What about the “Pigweed plant response rating” value [4] of the same compound?
**A.** 30

**Q.** What about the “Plant response rating, Pigweed” value [4] of the same compound?
**A.** 50

**Q.** What about the “Foxtail, Giant plant response rating” value [5] of the same compound?
**A.** 50

**Q.** And the “Plant response rating, Foxtail, Giant” value [5]?
**A.** 70

**Q.** And the “Galium plant response rating” value [6]?
**A.** 40

**Q.** What about the “Plant response rating, Galium” value [6] of the same compound?
**A.** 60

**Q.** And the “Wheat plant response rating” value [7]?
**A.** 30

**Q.** And the “Plant response rating, Wheat” value [7]?
**A.** 70

**Q.** And the “Kochia plant response rating” value [8]?
**A.** 60

**Q.** And the “Plant response rating, Kochia” value [8]?
**A.** 70

**Q.** What about the “Barnyardgrass plant response rating” value [9] of the same compound?
**A.** 90

**Q.** What about the “Plant response rating, Barnyardgrass” value [9] of the same compound?
**A.** 90

**Q.** And the “Corn plant response rating” value [10]?
**A.** 20

**Q.** And the “Plant response rating, Corn” value [10]?
**A.** 80

**Q.** What about the “Plant response rating, Ducksalad” value [11] of the same compound?
**A.** 100

**Q.** What about the “Plant response rating, Rice” value [12] of the same compound?
**A.** 20

**Q.** And the “Plant response rating, Sedge, Umbrella” value [13]?
**A.** 0

**Q.** And the “Plant response rating, Barnyardgrass” value [14]?
**A.** 65

**Q.** And the “Plant response rating, Ryegrass, Italian” value [15]?
**A.** 30

**Q.** And the “Ryegrass, Italian plant response rating (0 to 100 scale, 0 is no effect, 100 is complete control)” value [15]?
**A.** 40

**Q.** What about the “Plant response rating, Ragweed” value [16] of the same compound?
**A.** 70

**Q.** And the “Ragweed plant response rating (0 to 100 scale, 0 is no effect, 100 is complete control)” value [16]?
**A.** 90

**Q.** And the “Plant response rating, Pigweed” value [17]?
**A.** 60

**Q.** What about the “Pigweed plant response rating (0 to 100 scale, 0 is no effect, 100 is complete control)” value [17] of the same compound?
**A.** 60

**Q.** And the “Plant response rating, Foxtail, Giant” value [18]?
**A.** 90

**Q.** And the “Foxtail, Giant plant response rating (0 to 100 scale, 0 is no effect, 100 is complete control)” value [18]?
**A.** 100

**Q.** And the “Plant response rating, Kochia” value [19]?
**A.** 60

**Q.** What about the “Kochia plant response rating (0 to 100 scale, 0 is no effect, 100 is complete control)” value [19] of the same compound?
**A.** 80

**Q.** And the “Plant response rating, Barnyardgrass” value [20]?
**A.** 90

**Q.** And the “Barnyardgrass plant response rating (0 to 100 scale, 0 is no effect, 100 is complete control)” value [20]?
**A.** 100

**Q.** What does the source list for `Cc1cc(C2CNC(=O)C2C(=O)Nc2ccc(F)c(F)c2F)ccc1F` (stereo not drawn) [Compound 401]?
**A.** Blackgrass plant response rating [1]: 0; Plant response rating, Blackgrass [1]: 50; Ryegrass, Italian plant response rating [2]: 30; Plant response rating, Ryegrass, Italian [2]: 60; Ragweed plant response rating [3]: 30; Plant response rating, Ragweed [3]: 50; Pigweed plant response rating [4]: 0; Plant response rating, Pigweed [4]: 40; Foxtail, Giant plant response rating [5]: 30; Plant response rating, Foxtail, Giant [5]: 70; Galium plant response rating [6]: 50; Plant response rating, Galium [6]: 60; Wheat plant response rating [7]: 20; Plant response rating, Wheat [7]: 70; Kochia plant response rating [8]: 50; Plant response rating, Kochia [8]: 60; Barnyardgrass plant response rating [9]: 90; Plant response rating, Barnyardgrass [9]: 90; Corn plant response rating [10]: 0; Plant response rating, Corn [10]: 40; Plant response rating, Ducksalad [11]: 100; Plant response rating, Rice [12]: 25; Plant response rating, Sedge, Umbrella [13]: 0; Plant response rating, Barnyardgrass [14]: 70; Plant response rating, Ryegrass, Italian [15]: 0; Ryegrass, Italian plant response rating (0 to 100 scale, 0 is no effect, 100 is complete control) [15]: 40; Plant response rating, Ragweed [16]: 0; Ragweed plant response rating (0 to 100 scale, 0 is no effect, 100 is complete control) [16]: 50; Plant response rating, Pigweed [17]: 20; Pigweed plant response rating (0 to 100 scale, 0 is no effect, 100 is complete control) [17]: 50; Plant response rating, Foxtail, Giant [18]: 80; Foxtail, Giant plant response rating (0 to 100 scale, 0 is no effect, 100 is complete control) [18]: 90; Plant response rating, Kochia [19]: 50; Kochia plant response rating (0 to 100 scale, 0 is no effect, 100 is complete control) [19]: 80; Plant response rating, Barnyardgrass [20]: 90; Barnyardgrass plant response rating (0 to 100 scale, 0 is no effect, 100 is complete control) [20]: 90
